Test results taken from patent publication US7601716B2, “Pyridopyrazines and derivatives thereof as ALK and c-Met inhibitors” (Cephalon, Inc., priority 2006, dated 2009).

What was measured:
[1] = target: T1, c-Met (cytoplasmic domain) (Homo sapiens, UniProt P08581); test: c-Met Kinase Assay (ELISA/TRF, PLC-γ substrate); assay type: biochemical; details: 3 μM ATP (Km level); read-out: c-Met Kinase Inhibition (IC50)
T1 construct: Reactions were initiated with 30 ng/mL c-Met (cytoplasmic domain, Invitrogen Corporation #PV3143); purchased Invitrogen Corporation PV3143
T1 sequence (P08581 956-1390 limits assumed): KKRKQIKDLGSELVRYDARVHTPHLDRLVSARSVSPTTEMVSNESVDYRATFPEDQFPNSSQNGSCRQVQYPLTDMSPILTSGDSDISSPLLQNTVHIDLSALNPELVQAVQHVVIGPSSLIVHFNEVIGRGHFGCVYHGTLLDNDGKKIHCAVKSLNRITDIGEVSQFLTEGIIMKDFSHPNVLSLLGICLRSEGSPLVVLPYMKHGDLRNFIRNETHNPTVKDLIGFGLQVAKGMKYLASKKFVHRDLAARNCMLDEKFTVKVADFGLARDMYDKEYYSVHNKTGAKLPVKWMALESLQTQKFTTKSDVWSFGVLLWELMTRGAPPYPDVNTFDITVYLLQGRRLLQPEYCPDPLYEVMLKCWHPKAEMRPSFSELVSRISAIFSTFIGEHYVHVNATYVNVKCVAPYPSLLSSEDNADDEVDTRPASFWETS
Summary of the method: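 c-Met cytoplasmic domain (30 ng/mL) phosphorylates plate-coated GST–PLC-γ for 15 min at 37 °C. Phosphotyrosine detected with Eu-labeled PT66 antibody by time-resolved fluorescence. IC50 from variable-slope sigmoidal fit of % inhibition vs log concentration.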

[2] = target: baculovirus-expressed ALK (Homo sapiens, UniProt Q9UM73); test: ALK Kinase Assay (ELISA/TRF, PLC-γ substrate); assay type: biochemical; details: read-out: ALK Kinase Inhibition (IC50); also: 1 µM ATP (Km level)
baculovirus-expressed ALK, sequence (Q9UM73 19-1620): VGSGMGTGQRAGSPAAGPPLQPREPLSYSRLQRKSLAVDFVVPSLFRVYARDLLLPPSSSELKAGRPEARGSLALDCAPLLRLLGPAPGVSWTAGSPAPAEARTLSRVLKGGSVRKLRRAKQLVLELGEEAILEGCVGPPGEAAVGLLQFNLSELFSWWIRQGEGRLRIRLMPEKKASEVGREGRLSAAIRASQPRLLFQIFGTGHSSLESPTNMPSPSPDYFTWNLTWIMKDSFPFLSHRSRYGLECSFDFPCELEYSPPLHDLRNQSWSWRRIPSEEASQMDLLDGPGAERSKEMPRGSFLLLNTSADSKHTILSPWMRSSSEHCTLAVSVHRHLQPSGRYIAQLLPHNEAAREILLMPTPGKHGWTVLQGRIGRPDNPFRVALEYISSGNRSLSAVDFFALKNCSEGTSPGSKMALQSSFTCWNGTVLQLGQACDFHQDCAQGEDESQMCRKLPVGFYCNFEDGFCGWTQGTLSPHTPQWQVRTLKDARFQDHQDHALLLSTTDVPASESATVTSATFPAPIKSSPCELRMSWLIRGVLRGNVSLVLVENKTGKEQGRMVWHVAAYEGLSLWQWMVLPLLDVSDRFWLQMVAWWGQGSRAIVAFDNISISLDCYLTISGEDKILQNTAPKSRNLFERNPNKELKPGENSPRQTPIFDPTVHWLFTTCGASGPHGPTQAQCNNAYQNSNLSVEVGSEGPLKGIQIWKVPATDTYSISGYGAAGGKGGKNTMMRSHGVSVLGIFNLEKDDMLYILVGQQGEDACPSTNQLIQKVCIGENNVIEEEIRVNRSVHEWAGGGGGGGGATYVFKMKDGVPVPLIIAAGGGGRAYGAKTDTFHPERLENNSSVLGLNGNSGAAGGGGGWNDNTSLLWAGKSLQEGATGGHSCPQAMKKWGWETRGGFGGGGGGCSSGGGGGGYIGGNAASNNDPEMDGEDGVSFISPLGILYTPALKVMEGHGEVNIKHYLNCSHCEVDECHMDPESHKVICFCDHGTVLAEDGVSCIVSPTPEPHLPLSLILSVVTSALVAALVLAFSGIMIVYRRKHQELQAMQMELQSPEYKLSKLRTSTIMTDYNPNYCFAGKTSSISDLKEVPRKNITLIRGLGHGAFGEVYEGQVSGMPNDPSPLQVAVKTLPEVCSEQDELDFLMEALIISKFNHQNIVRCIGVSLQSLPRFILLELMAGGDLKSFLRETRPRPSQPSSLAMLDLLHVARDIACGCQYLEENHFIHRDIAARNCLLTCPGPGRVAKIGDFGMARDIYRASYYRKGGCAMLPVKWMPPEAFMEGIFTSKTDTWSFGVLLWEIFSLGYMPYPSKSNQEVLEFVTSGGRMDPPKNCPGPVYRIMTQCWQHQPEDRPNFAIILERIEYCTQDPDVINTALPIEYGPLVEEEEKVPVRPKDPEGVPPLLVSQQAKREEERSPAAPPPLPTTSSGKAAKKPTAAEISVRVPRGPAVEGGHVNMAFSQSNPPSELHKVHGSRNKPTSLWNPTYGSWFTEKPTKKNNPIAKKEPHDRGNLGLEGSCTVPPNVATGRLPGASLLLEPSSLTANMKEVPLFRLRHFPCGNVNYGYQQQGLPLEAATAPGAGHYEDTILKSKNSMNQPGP
Summary of the method: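 Plates coated with GST–PLC-γ fusion substrate (10 μg/mL in TBS); reaction started with 30 ng/ml ALK, run 15 minutes at 37° C. Phosphotyrosine detected by Eu-N1 PT66 antibody (1 hour, 37° C) and time-resolved fluorescence after enhancement. IC50 from sigmoidal variable-slope fit of percent inhibition versus log concentration.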

Row | SMILES | IC50 [1] [µM] | IC50 [2] [µM]
1 | O=C(O)c1cccc(-c2cnc3c(c2)N(Cc2cc(Cl)ccc2C(F)(F)F)CCN3)c1 [Example 196, 3-{1-[5-Chloro-2-(trifluoromethyl)benzyl]-1,2,3,4-tetrahydropyrido[2,3-b]pyrazin-7-yl}benzoic acid] | 10 to 100 | 1 to 10
2 | CN(C)CCn1cc(-c2cnc3c(c2)N(Cc2c(F)ccc(F)c2Cl)CCN3)cn1 [Example 197, (2-{4-[1-(2-Chloro-3,6-difluorobenzyl)-1,2,3,4-tetrahydropyrido[2,3-b]pyrazin-7-yl]-pyrazol-1-yl}ethyl)dimethylamine] | 1 to 10 | 0.1 to 1
3 | FC(F)(F)c1ccc(Cl)cc1CN1CCNc2ncc(-c3cc[nH]c3)cc21 [Example 202, 1-[5-Chloro-2-(trifluoromethyl)benzyl]-7-(1H-pyrrol-3-yl)-1,2,3,4-tetrahydro-pyrido[2,3-b]pyrazine] | 10 to 100 | 0.1 to 1
4 | O=C(c1cnc2c(c1)N(Cc1cc(Cl)ccc1Cl)CCN2)N1CCN(c2ccccc2)CC1 [Example 206, [1-(2,5-Dichlorobenzyl)-1,2,3,4-tetrahydropyrido[2,3-b]pyrazin-7-yl]-(4-phenylpiperazin-1-yl)-methanone] | > 100 | 10 to 100
5 | O=C(c1cnc2c(c1)N(Cc1cc(Cl)ccc1Cl)CCN2)N1CCN(c2ncccn2)CC1 [Example 207, [1-(2,5-Dichlorobenzyl)-1,2,3,4-tetrahydropyrido[2,3-b]pyrazin-7-yl]-(4-pyrimidin-2-yl-piperazin-1-yl)-methanone] | > 100 | 1 to 10
6 | O=C(c1cnc2c(c1)N(Cc1cc(Cl)ccc1Cl)CCN2)N1CCC(O)(c2ccc(Cl)cc2)CC1 [Example 208, [4-(4-Chlorophenyl)-4-hydroxypiperidin-1-yl]-[1-(2,5-dichlorobenzyl)-1,2,3,4-tetrahydropyrido[2,3-b]pyrazin-7-yl]methanone] | > 100 | 1 to 10
7 | O=C(c1cnc2c(c1)N(Cc1cc(Cl)ccc1Cl)CCN2)N1CCC(n2c(=O)[nH]c3ccccc32)CC1 [Example 209, 1-{1-[1-(2,5-Dichlorobenzyl)-1,2,3,4-tetrahydropyrido[2,3-b]pyrazine-7-carbonyl]piperidin-4-yl}-1,3-dihydrobenzoimidazol-2-one] | 10 to 100 | 1 to 10
8 | COc1ccccc1N1CCN(C(=O)c2cnc3c(c2)N(Cc2cc(Cl)ccc2Cl)CCN3)CC1 [Example 210, [1-(2,5-Dichlorobenzyl)-1,2,3,4-tetrahydropyrido[2,3-b]pyrazin-7-yl]-[4-(2-methoxyphenyl)piperazin-1-yl]methanone] | 10 to 100 | 1 to 10
9 | O=C(c1cnc2c(c1)N(Cc1cc(Cl)ccc1Cl)CCN2)N1CCN(c2cccc(C(F)(F)F)c2)CC1 [Example 211, [1-(2,5-Dichlorobenzyl)-1,2,3,4-tetrahydropyrido[2,3-b]pyrazin-7-yl]-{4-[3-(trifluoromethyl)phenyl]piperazin-1-yl}methanone] | 10 to 100 | 10 to 100
10 | O=C(c1cnc2c(c1)N(Cc1cc(Cl)ccc1Cl)CCN2)N1CCC(c2ccccc2)CC1 [Example 212, [1-(2,5-Dichlorobenzyl)-1,2,3,4-tetrahydropyrido[2,3-b]pyrazin-7-yl]-(4-phenylpiperidin-1-yl)methanone] | 1 to 10 | 1 to 10
11 | O=C(c1cnc2c(c1)N(Cc1cc(Cl)ccc1Cl)CCN2)N1CCN(c2ccc(Cl)c(Cl)c2)CC1 [Example 213, [1-(2,5-Dichlorobenzyl)-1,2,3,4-tetrahydropyrido[2,3-b]pyrazin-7-yl]-[4-(3,4-dichlorophenyl)-piperazin-1-yl]methanone] | 10 to 100 | 1 to 10
12 | O=C(c1cnc2c(c1)N(Cc1cc(Cl)ccc1Cl)CCN2)N1CCN(C(c2ccccc2)c2ccccc2)CC1 [Example 214, (4-Benzhydrylpiperazin-1-yl)-[1-(2,5-dichlorobenzyl)-1,2,3,4-tetrahydropyrido[2,3-b]pyrazin-7-yl]methanone] | 10 to 100 | 10 to 100
13 | O=C(c1cnc2c(c1)N(Cc1cc(Cl)ccc1Cl)CCN2)N1CCC(Cc2ccccc2)CC1 [Example 215, (4-Benzylpiperidin-1-yl)-[1-(2,5-dichlorobenzyl)-1,2,3,4-tetrahydropyrido[2,3-b]pyrazin-7-yl]methanone] | 10 to 100 | 10 to 100
14 | O=C(c1cnc2c(c1)N(Cc1cc(Cl)ccc1Cl)CCN2)N1CCC2(CC1)C(=O)NCN2c1ccccc1 [Example 216, 8-[1-(2,5-Dichlorobenzyl)-1,2,3,4-tetrahydropyrido[2,3-b]pyrazine-7-carbonyl]-1-phenyl-1,3,8-triaza-spiro[4.5]decan-4-one] | > 100 | 1 to 10
15 | O=C(c1cnc2c(c1)N(Cc1cc(Cl)ccc1Cl)CCN2)N1CCN(c2ncnc3ccsc23)CC1 [Example 217, [1-(2,5-Dichlorobenzyl)-1,2,3,4-tetrahydropyrido[2,3-b]pyrazin-7-yl]-(4-thieno[3,2-d]pyrimidin-4-yl-piperazin-1-yl)methanone] | > 100 | 1 to 10
16 | COc1ccc(CN2CCN(C(=O)c3cnc4c(c3)N(Cc3cc(Cl)ccc3Cl)CCN4)CC2)cc1 [Example 218, [1-(2,5-Dichlorobenzyl)-1,2,3,4-tetrahydropyrido[2,3-b]pyrazin-7-yl]-[4-(4-methoxybenzyl)piperazin-1-yl]methanone] | 10 to 100 | 10 to 100
17 | O=C(c1ccccc1)N1CCN(C(=O)c2cnc3c(c2)N(Cc2cc(Cl)ccc2Cl)CCN3)CC1 [Example 219, (4-Benzoylpiperazin-1-yl)-[1-(2,5-dichlorobenzyl)-1,2,3,4-tetrahydropyrido[2,3-b]pyrazin-7-yl]methanone] | 10 to 100 | 1 to 10
18 | O=C(c1cnc2c(c1)N(Cc1cc(Cl)ccc1Cl)CCN2)N1CCN(c2nccc3occc23)CC1 [Example 220, [1-(2,5-Dichlorobenzyl)-1,2,3,4-tetrahydropyrido[2,3-b]pyrazin-7-yl]-(4-furo[3,2-c]pyridin-4-yl-piperazin-1-yl)methanone] | 1 to 10 | 1 to 10
19 | O=C(c1cnc2c(c1)N(Cc1cc(Cl)ccc1Cl)CCN2)N1CCC(c2noc3cc(F)ccc23)CC1 [Example 221, [1-(2,5-Dichlorobenzyl)-1,2,3,4-tetrahydropyrido[2,3-b]pyrazin-7-yl]-[4-(6-fluorobenzo[d]isoxazol-3-yl)piperidin-1-yl]methanone] | > 100 | 10 to 100
20 | O=C(c1cnc2c(c1)N(Cc1cc(Cl)ccc1Cl)CCN2)N1CCN(c2cccc(Cl)c2)CC1 [Example 222, [4-(3-Chlorophenyl)piperazin-1-yl]-[1-(2,5-dichlorobenzyl)-1,2,3,4-tetrahydropyrido[2,3-b]pyrazin-7-yl]methanone] | 10 to 100 | 10 to 100
21 | O=C(NCCc1ccccn1)c1cnc2c(c1)N(Cc1cc(Cl)ccc1Cl)CCN2 [Example 223, 1-(2,5-Dichlorobenzyl)-1,2,3,4-tetrahydropyrido[2,3-b]pyrazine-7-carboxylic acid (2-pyridin-2-yl-ethyl)amide] | > 100 | 1 to 10
22 | CCOC(=O)N1CCC(NC(=O)c2cnc3c(c2)N(Cc2cc(Cl)ccc2Cl)CCN3)CC1 [Example 224, 4-{[1-(2,5-Dichlorobenzyl)-1,2,3,4-tetrahydropyrido[2,3-b]pyrazine-7-carbonyl]amino}piperidine-1-carboxylic acid ethyl ester] | 10 to 100 | 1 to 10
23 | O=C(NC1CCN(Cc2ccccc2)CC1)c1cnc2c(c1)N(Cc1cc(Cl)ccc1Cl)CCN2 [Example 225, 1-(2,5-Dichlorobenzyl)-1,2,3,4-tetrahydropyrido[2,3-b]pyrazine-7-carboxylic acid (1-benzyl-piperidin-4-yl)amide] | 10 to 100 | 1 to 10
24 | O=C(NCC(c1ccccc1)c1ccccc1)c1cnc2c(c1)N(Cc1cc(Cl)ccc1Cl)CCN2 [Example 226, 1-(2,5-Dichlorobenzyl)-1,2,3,4-tetrahydropyrido[2,3-b]pyrazine-7-carboxylic acid (2,2-diphenylethyl)amide] | 10 to 100 | 10 to 100
25 | CC(=O)N1CCN(C(=O)c2cnc3c(c2)N(Cc2cc(Cl)ccc2Cl)CCN3)CC1 [Example 227, 1-{4-[1-(2,5-Dichlorobenzyl)-1,2,3,4-tetrahydropyrido[2,3-b]pyrazine-7-carbonyl]piperazin-1-yl}ethanone] | 10 to 100 | 10 to 100
26 | O=C(NCc1cccc(Cl)c1)c1cnc2c(c1)N(Cc1cc(Cl)ccc1Cl)CCN2 [Example 228, 1-(2,5-Dichlorobenzyl)-1,2,3,4-tetrahydropyrido[2,3-b]pyrazine-7-carboxylic acid 3-chlorobenzylamide] | 10 to 100 | 1 to 10
27 | O=C(c1cnc2c(c1)N(Cc1cc(Cl)ccc1Cl)CCN2)N1CCN(CCc2ccccn2)CC1 [Example 229, [1-(2,5-Dichlorobenzyl)-1,2,3,4-tetrahydropyrido[2,3-b]pyrazin-7-yl]-[4-(2-pyridin-2-yl-ethyl)piperazin-1-yl]methanone] | 1 to 10 | 1 to 10
28 | O=C(NCc1ccc(OC(F)(F)F)cc1)c1cnc2c(c1)N(Cc1cc(Cl)ccc1Cl)CCN2 [Example 230, 1-(2,5-Dichlorobenzyl)-1,2,3,4-tetrahydropyrido[2,3-b]pyrazine-7-carboxylic acid 4-(trifluoromethoxy)benzylamide] | > 100 | 1 to 10
29 | O=C(c1cnc2c(c1)N(Cc1cc(Cl)ccc1Cl)CCN2)N1CCC(N2CCOCC2)CC1 [Example 231, [1-(2,5-Dichlorobenzyl)-1,2,3,4-tetrahydropyrido[2,3-b]pyrazin-7-yl]-(4-morpholin-4-yl-piperidin-1-yl)methanone] | 10 to 100 | 1 to 10
